This note sets out measurements from patent US20230391792A1, “METHODS AND COMPOSITIONS FOR TARGETED PROTEIN DEGRADATION” (Ranok Therapeutics (Hangzhou) Co. Ltd., priority 2020, published 2023).

The target in this experiment is T1, HSP90α protein (N-terminal) (Homo sapiens, UniProt P07900).
T1 construct: purchased BPS Bioscience #50298
Description: HSP90α-binding fluorescent polarization (FP) assay, competition with BODIPY-labeled RNK04010. Particulars: probe RNK04010 (BODIPY-labeled) 5 nM, 25° C. 300 min. The procedure: Binding of test compounds to HSP90α protein was measured by fluorescent polarization (FP) using the HSP90α (N-terminal) Assay Kit (BPS Bioscience, #50298), following the manufacturer's instructions, except as noted. Fluorescently labeled HSP90-binding compounds, either the provided FITC-geldanamycin (5 nM final concentration) or RNK04010, a triazolone-based HSP90-binding small molecule labeled with BODIPY through a piperizine-phenyl linker (5 nM final concentration) were employed. A 2.5-fold serial dilution of each test compound ranging from 20 μM to 5.2 nM was assayed for binding to HSP90α. After the final step of adding HSP90α protein to each assay well, plates were mixed by brief shaking, incubated at 25° C. for 120 min for FITC-geldanamycin or 300 min for RNK04010, and fluorescence was measured using a PerkinElmer EnVision Plate Reader.
HSP90α-binding fluorescent polarization (FP) assays measuring competition with the fluorescently labeled HSP90 binders, FITC-geldanamycin or RNK04010 (BODIPY-labeled), were applied to assess the binding capabilities of CHAMP molecules to HSP90.
One may read the IC50 as the point on the concentration scale where inhibition reaches its midpoint. Low values mean greater potency, high ones weaker potency. Take `Cc1sc2c(c1C)C(c1ccc(Cl)cc1)=N[C@@H](CC(=O)N1CCC(CCN3CCC(Cc4ccc(-n5c(O)nnc5-c5cc(C(C)C)c(O)cc5O)cc4)CC3)CC1)c1nnc(C)n1-2` [Compound 55]: the IC50 is below 100 nM.

Compound `Cc1sc2c(c1C)C(c1ccc(Cl)cc1)=N[C@@H](CC(=O)N[C@H](C)c1cccc(CN3CCC(Cc4ccc(-n5c(O)nnc5-c5cc(C(C)C)c(O)cc5O)cc4)CC3)c1)c1nnc(C)n1-2` [Compound 56] had a half-maximal inhibitory concentration (IC50) below 100 nM.

In the case of `CCNC(=O)c1nnc(-c2cc(CC)c(O)cc2O)n1-c1ccc(CN2CCN(CC3CCN(C(=O)C[C@@H]4N=C(c5ccc(Cl)cc5)c5c(sc(C)c5C)-n5c(C)nnc54)CC3)CC2)cc1` [Compound 59], the IC50 is below 100 nM.

Compound `Cc1sc2c(c1C)C(c1ccc(Cl)cc1)=N[C@@H](CC(=O)NCc1ccc(CN3CCC(Cc4ccc(-n5c(O)nnc5-c5cc(C(C)C)c(O)cc5O)cc4)CC3)cc1)c1nnc(C)n1-2` [Compound 60] had an IC50 below 100 nM.

`Cc1sc2c(c1C)C(c1ccc(Cl)cc1)=N[C@@H](CC(=O)N(C)[C@@H](C)c1ccc(CN3CCC(Cc4ccc(-n5c(O)nnc5-c5cc(C(C)C)c(O)cc5O)cc4)CC3)cc1)c1nnc(C)n1-2` [Compound 63] displayed a concentration for half-maximal inhibition (IC50) of 100 to 1000 nM.

`CCN(Cc1ccc(OCCCNC(=O)C[C@@H]2N=C(c3ccc(Cl)cc3)c3c(sc(C)c3C)-n3c(C)nnc32)cc1)Cc1ccc(-n2c(C(=O)NCC(F)(F)F)nnc2-c2cc(C(C)C)c(O)cc2O)cc1` [Compound 72] showed an IC50 of 100 to 1000 nM.

`CCc1cc(-c2nnc(C(=O)NC(C)C)n2-c2ccc(CN3CCN(CC4CCN(C(=O)C[C@@H]5N=C(c6ccc(Cl)cc6)c6c(sc(C)c6C)-n6c(C)nnc65)CC4)CC3)cc2)c(O)cc1O` [Compound 74] showed a 50% inhibitory concentration (IC50) below 100 nM.

`Cc1sc2c(c1C)C(c1ccc(Cl)cc1)=N[C@@H](CC(=O)N1CCC(CN3CCN(Cc4ccc(-n5c(C(=O)NCCN6CCCCC6)nnc5-c5cc(C(C)C)c(O)cc5O)cc4)CC3)CC1)c1nnc(C)n1-2` [Compound 76]: the half-inhibitory concentration (IC50) is below 100 nM.

In turn, `Cc1sc2c(c1C)C(c1ccc(Cl)cc1)=N[C@@H](CC(=O)N1CCC(CN3CCN(Cc4ccc(-n5c(C(=O)NC(C)C)nnc5-c5cc(C(C)C)c(O)cc5O)cc4)CC3)CC1)c1nnc(C)n1-2` [Compound 77] displayed a half-maximal inhibitory concentration (IC50) of 100 to 1000 nM.

Turning to `Cc1sc2c(c1C)C(c1ccc(Cl)cc1)=N[C@@H](CC(=O)N1CCC(CN3CCN(Cc4ccc(-n5c(C(N)=O)nnc5-c5cc(C(C)C)c(O)cc5O)cc4)CC3)CC1)c1nnc(C)n1-2` [Compound 78], the IC50 was below 100 nM.

`CCc1cc(-c2nnc(C(=O)NCCN3CCCCC3)n2-c2ccc(CN3CCN(CC4CCN(C(=O)C[C@@H]5N=C(c6ccc(Cl)cc6)c6c(sc(C)c6C)-n6c(C)nnc65)CC4)CC3)cc2)c(O)cc1O` [Compound 82] returned a concentration for half-maximal inhibition (IC50) below 100 nM.

The compound `COc1cccc(-c2cc(C(=O)Nc3ccc(-c4ccc(OC5CCN(C)CC5)cc4OCCN(C)C(=O)CNC(=O)C[C@@H]4N=C(c5ccc(Cl)cc5)c5c(sc(C)c5C)-n5c(C)nnc54)cc3)ccc2OC)c1` [Compound 83] displayed an IC50 above 1000 nM.

Compound `COc1cccc(-c2cc(C(=O)Nc3ccc(-c4ccc(OC5CCN(C(=O)C[C@@H]6N=C(c7ccc(Cl)cc7)c7c(sc(C)c7C)-n7c(C)nnc76)CC5)cc4OCCN(C)C)cc3)ccc2OC)c1` [Compound 84] displayed an IC50 above 1000 nM.

Regarding `CCN(CC)CCNC(=O)c1nnc(-c2cc(C(C)C)c(O)cc2O)n1-c1ccc(CN2CCN(CC3CCN(C(=O)C[C@@H]4N=C(c5ccc(Cl)cc5)c5c(sc(C)c5C)-n5c(C)nnc54)CC3)CC2)cc1` [Compound 90], the IC50 is below 100 nM.

Compound `Cc1sc2c(c1C)C(c1ccc(Cl)cc1)=N[C@@H](CC(=O)N1CCC(CN3CCN(Cc4ccc(-n5c(C(=O)NC(C)C)nnc5-c5ccc(O)cc5O)cc4)CC3)CC1)c1nnc(C)n1-2` [Compound 91] came in with an IC50 below 100 nM.

As to `CCCc1cc(-c2nnc(C(=O)NCCN3CCCCC3)n2-c2ccc(CN3CCN(CC4CCN(C(=O)C[C@@H]5N=C(c6ccc(Cl)cc6)c6c(sc(C)c6C)-n6c(C)nnc65)CC4)CC3)cc2)c(O)cc1O` [Compound 92], the IC50 is below 100 nM.

For the compound `Cc1cc(C(=O)N2Cc3ccc(CN4CCN(C(=O)C[C@@H]5N=C(c6ccc(Cl)cc6)c6c(sc(C)c6C)-n6c(C)nnc65)CC4)c(F)c3C2)c(O)cc1O` [Compound 99], the IC50 is above 1000 nM.

As for `Cc1sc2c(c1C)C(c1ccc(Cl)cc1)=N[C@@H](CC(=O)N1CCN(Cc3ccc4c(c3F)CN(C(=O)c3cc(C(C)C)c(O)cc3O)C4)CC1)c1nnc(C)n1-2` [Compound 100], the IC50 was 100 to 1000 nM.

For `CCc1cc(-c2nnc(C(=O)NC3CC3)n2-c2ccc(CN3CCN(CC4CCN(C(=O)C[C@@H]5N=C(c6ccc(Cl)cc6)c6c(sc(C)c6C)-n6c(C)nnc65)CC4)CC3)cc2)c(O)cc1O` [Compound 101], the half-inhibitory concentration (IC50) was below 100 nM.

Take `CCc1cc(-c2nnc(C(=O)NC(C)C)n2-c2ccc(CN3CCN(CC4CCN(C(=O)C[C@@H]5N=C(c6ccc(Cl)cc6)c6c(sc(C)c6C)-n6c(C)nnc65)CC4)CC3)cc2)c(O)cc1O` [Compound 102]: the IC50 was below 100 nM.

In turn, `CCc1cc(-c2nnc(C(=O)NC(CC)CC)n2-c2ccc(CN3CCN(CC4CCN(C(=O)C[C@@H]5N=C(c6ccc(Cl)cc6)c6c(sc(C)c6C)-n6c(C)nnc65)CC4)CC3)cc2)c(O)cc1O` [Compound 103] returned a concentration for half-maximal inhibition (IC50) of 100 to 1000 nM.

Consider `CCc1cc(-c2nnc(C(=O)NC3(C)CC3)n2-c2ccc(CN3CCN(CC4CCN(C(=O)C[C@@H]5N=C(c6ccc(Cl)cc6)c6c(sc(C)c6C)-n6c(C)nnc65)CC4)CC3)cc2)c(O)cc1O` [Compound 104], for which the half-inhibitory concentration (IC50) was below 100 nM.

Turning to `CCc1cc(-c2nnc(C(=O)NC(C)C(F)(F)F)n2-c2ccc(CN3CCN(CC4CCN(C(=O)C[C@@H]5N=C(c6ccc(Cl)cc6)c6c(sc(C)c6C)-n6c(C)nnc65)CC4)CC3)cc2)c(O)cc1O` (some centres unmarked) [Compound 105], the IC50 fell in the range of 100 to 1000 nM.

As for `Cc1sc2c(c1C)C(c1ccc(Cl)cc1)=N[C@@H](CC(=O)N1CCN(Cc3ccc(-n4c(O)nnc4-c4cc(C(C)C)c(O)cc4O)cc3)[C@H](C)C1)c1nnc(C)n1-2` [Compound 106], the half-inhibitory concentration (IC50) was in the range of 100 to 1000 nM.

In the case of `Cc1sc2c(c1C)C(c1ccc(Cl)cc1)=N[C@@H](CC(=O)N1CCN(Cc3ccc(-n4c(O)nnc4-c4cc(C(C)C)c(O)cc4O)cc3)[C@@H](C)C1)c1nnc(C)n1-2` [Compound 107], the half-inhibitory concentration (IC50) fell in the range of 100 to 1000 nM.

Compound `COc1cc(O)c(C(C)C)cc1-c1nnc(O)n1-c1ccc(CN2CCN(CC3CCN(C(=O)C[C@@H]4N=C(c5ccc(Cl)cc5)c5c(sc(C)c5C)-n5c(C)nnc54)CC3)CC2)cc1` [Compound 108] gave an IC50 above 1000 nM.

`Cc1sc2c(c1C)C(c1ccc(Cl)cc1)=N[C@@H](CC(=O)N1CCC(Cc3ccc(CN(C)Cc4ccc(-n5c(C(=O)NCC(F)(F)F)nnc5-c5cc(C(C)C)c(O)cc5O)cc4)cn3)CC1)c1nnc(C)n1-2` [Compound 109] came in with a half-maximal inhibitory concentration (IC50) of 100 to 1000 nM.

The compound `CCOc1cc(N2CCC(C(=O)NCc3ccc(-n4c(O)nnc4-c4ccc(O)cc4O)cc3)CC2)ccc1Nc1ncc2c(n1)N(C)c1ccccc1C(=O)N2C` [Compound 119] came in with an IC50 above 1000 nM.

`CCOc1cc(N2CCC(C(=O)NCc3ccc(-n4c(O)nnc4-c4cc(C)c(O)cc4O)cc3)CC2)ccc1Nc1ncc2c(n1)N(C)c1ccccc1C(=O)N2C` [Compound 120]: the 50% inhibitory concentration (IC50) fell in the range of 100 to 1000 nM.

Compound `CCCc1cc(-c2nnc(O)n2-c2ccc(CNC(=O)C3CCN(c4ccc(Nc5ncc6c(n5)N(C)c5ccccc5C(=O)N6C)c(OCC)c4)CC3)cc2)c(O)cc1O` [Compound 121] came in with an IC50 above 1000 nM.

The compound `CCOc1cc(N2CCC(C(=O)NCc3ccc(-n4c(O)nnc4-c4cc(C(C)C)c(O)cc4O)cc3C(F)(F)F)CC2)ccc1Nc1ncc2c(n1)N(C)c1ccccc1C(=O)N2C` [Compound 122] yielded a concentration for half-maximal inhibition (IC50) of 100 to 1000 nM.

Compound `CCOc1cc(N2CCC(C(=O)NCc3ccc(-n4c(O)nnc4-c4cc(CC)c(O)cc4O)cc3F)CC2)ccc1Nc1ncc2c(n1)N(C)c1ccccc1C(=O)N2C` [Compound 125] displayed an IC50 above 1000 nM.

With `CCCc1cc(-c2nnc(O)n2-c2ccc(CN3CCN(C(=O)C4CCN(c5ccc(Nc6ncc7c(n6)N(C)c6ccccc6C(=O)N7C)c(OCC)c5)CC4)CC3)cc2)c(O)cc1O` [Compound 128], the IC50 fell in the range of 100 to 1000 nM.

Compound `CCOc1cc(N2CCC(C(=O)NCc3ccc(CN4CCC(Cc5ccc(-n6c(C(=O)NC(C)C)nnc6-c6cc(C(C)C)c(O)cc6O)cc5)CC4)cc3)CC2)ccc1Nc1ncc2c(n1)N(C)c1ccccc1C(=O)N2C` [Compound 130] returned an IC50 of 100 to 1000 nM.

In the case of `COc1cccc(-c2cc(C(=O)Nc3ccc(-c4ccc(OC5CCN(C(=O)C[C@@H]6N=C(c7ccc(Cl)cc7)c7c(sc(C)c7C)-n7c(C)nnc76)CC5)cc4O)cc3)ccc2OC)c1` [Compound 131], the concentration for half-maximal inhibition (IC50) was above 1000 nM.

For `COc1cccc(-c2cc(C(=O)Nc3ccc(-c4ccc(OC5CCN(C(=O)CNC(=O)N[C@@H]6N=C(c7ccc(Cl)cc7)c7c(sc(C)c7C)-n7c(C)nnc76)CC5)cc4O)cc3)ccc2OC)c1` [Compound 132], the 50% inhibitory concentration (IC50) is above 1000 nM.

`COc1cccc(-c2cc(C(=O)Nc3ccc(-c4ccc(OC5CCN(C)CC5)cc4COCN(C)CC[C@@H]4N=C(c5ccc(Cl)cc5)c5c(sc(C)c5C)-n5c(C)nnc54)cc3)ccc2OC)c1` [Compound 133] displayed an IC50 above 1000 nM.

Regarding `CCOc1cc(N2CCC(C(=O)N3CCN(CCOc4ccc(Nc5cc(-n6nc(C(F)(F)F)c7c6CC(C)(C)CC7=O)ccc5C(N)=O)cc4)CC3)CC2)ccc1Nc1ncc2c(n1)N(C)c1ccccc1C(=O)N2C` [Compound 149], the IC50 fell in the range of 100 to 1000 nM.
